pEC50: −log10 of the molar value.

As usually defined, the pEC50 is −log10 of the EC50, conventionally taken in molar units.

The target of this assay is T1, human GPR119 (Homo sapiens, UniProt Q8TDV5).
T1 construct: expression vector for human GPR119 cDNA (Acc. No. NP_848566); expressed in transfected cells
T1 sequence (Q8TDV5 1-335): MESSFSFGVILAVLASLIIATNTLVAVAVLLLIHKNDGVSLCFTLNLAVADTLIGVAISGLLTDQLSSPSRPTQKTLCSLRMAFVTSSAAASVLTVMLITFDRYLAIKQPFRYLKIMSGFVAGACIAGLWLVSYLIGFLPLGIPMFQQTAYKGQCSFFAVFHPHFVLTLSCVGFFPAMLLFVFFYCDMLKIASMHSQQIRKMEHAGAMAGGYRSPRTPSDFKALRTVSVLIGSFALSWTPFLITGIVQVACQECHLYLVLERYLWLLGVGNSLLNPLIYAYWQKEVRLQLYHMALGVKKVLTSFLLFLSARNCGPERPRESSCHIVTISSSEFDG
In words: GPR119 activation / intracellular cAMP stimulation, AlphaScreen cAMP Assay in Min-6/hGPR119 cells. It counts as cell-based. The following applies: MIN6 cells stably transfected with human GPR119, 45 minutes incubation at room temperature. Here is the method:
The compounds of formula I according to the invention modulate the activity of the G-protein-coupled receptor GPR119. The effect of the compounds on the activation of GPR119 and on the stimulation of intracellular cAMP concentration is determined using the AlphaScreen cAMP Assay Kit (Cat. No. #6760625R) made by PerkinElmer.
MIN6 cells [Miyazaki J et al., Endocrinology. 1990 July; 127(1):126-32] are stably transfected with an expression vector for human GPR119 cDNA (Acc. No. NP_848566). Min-6/hGPR119 cells are cultured in DMEM, 10% FBS, 50 μM β-mercaptoethanol, 0.3 mg/mL Geniticin, 2 mM GlutaMAX at 37° C., 5% CO2. For the assay, the cells are seeded in Optiplates (white, 384-well, 160W-barcoded, TC, sterile with lid, Cat. No. #6007688 (Perkin Elmer); 10000 cells/well; 50 μL). The plates covered with lids are then incubated for 24 hours at 37° C., 5% CO2. After the medium is aspirated from the wells completely, 10 ill of the test compound are added, the compounds are diluted using stimulating buffer (140 mM NaCl, 3.6 mM KCl, 0.5 mM NaH2PO4, 0.5 mM MgSO4, 1.5 mM CaCl2, 10 mM Hepes, 5 mM NaHCO3; pH 7.4. 0.5 mM IBMX and 0.1% BSA, the final DMSO concentration is 1%). After 45 minutes incubation at room temperature (approx. 20° C.), the cAMP concentrations are determined using the AlphaScreen cAMP Assay Kit (Cat. No. #6760625R from PerkinElmer).
(In general: Alpha assays give light when donor and acceptor beads are brought close together.)
In turn, `CC(C)(C)OC(=O)N1CCC2(CC1)CC1(Cc3cc(-c4ccc(S(C)(=O)=O)cc4)ncc3O1)C2` [Example 1, 5-(4-Methylsulfonyl-phenyl)-1″-tert-butoxycarbonyl-dispiro[2,3-dihydrofuro[2,3-c]pyridine-2,1′-cyclobutane-3′,4″-piperidine]] showed a negative-log EC50 (pEC50) of 7.68. On to `CC(C)(C)OC(=O)N1CCC2(CC1)CC1(Cc3cc(C4=CCN(S(C)(=O)=O)CC4)ncc3O1)C2` [Example 2, 5-(1-Methanesulfonyl-1,2,3,6-tetrahydro-pyridin-4-yl)-1″-tert-butoxycarbonyl-dispiro[2,3-dihydrofuro[2,3-c]pyridine-2,1′-cyclobutane-3′,4″-piperidine]], for which the pEC50 was 7.30.

Molecule `CC(C)(C)OC(=O)N1CCC2(CC1)CC1(Cc3cc(-c4ccc(S(C)(=O)=O)cc4F)ncc3O1)C2` [Example 3, 5-(2-Fluoro-4-methylsulfonyl-phenyl)-1″-tert-butoxycarbonyl-dispiro[2,3-dihydrofuro[2,3-c]pyridine-2,1′-cyclobutane-3′,4″-piperidine]] gave a pEC50 of 7.82. For `CCc1cnc(N2CCC3(CC2)CC2(Cc4cc(-c5ccc(S(C)(=O)=O)cc5)ncc4O2)C3)nc1` [Example 4, 1″-(5-Ethyl-pyrimidin-2-yl)-5-(4-methylsulfonyl-phenyl)-dispiro[2,3-dihydrofuro[2,3-c]pyridine-2,1′-cyclobutane-3′,4″-piperidine]], the pEC50 is 7.74. Turning to `CS(=O)(=O)c1ccc(-c2cc3c(cn2)OC2(C3)CC3(CCN(CC4(C(F)(F)F)CC4)CC3)C2)cc1` [Example 5, 5-(4-Methylsulfonyl-phenyl)-1″-[(1-trifluoromethyl-cyclopropyl)-methyl]-dispiro[2,3-dihydrofuro[2,3-c]pyridine-2,1′-cyclobutane-3′,4″-piperidine]], the pEC50 was 6.44. Consider `CC(C)(F)CN1CCC2(CC1)CC1(Cc3cc(-c4ccc(S(C)(=O)=O)cc4)ncc3O1)C2` [Example 6, 1″-(2-Fluoro-2-methyl-propyl)-5-(4-methylsulfonyl-phenyl)-dispiro[2,3-dihydrofuro[2,3-c]pyridine-2,1′-cyclobutane-3′,4″-piperidine]], for which the negative logarithm of the EC50 (pEC50) is 6.87.

`Cc1cnc(N2CCC3(CC2)CC2(Cc4cc(-c5ccc(S(C)(=O)=O)cc5)ncc4O2)C3)nc1` [Example 7, 1″-(5-Methyl-pyrimidin-2-yl)-5-(4-methylsulfonyl-phenyl)-dispiro[2,3-dihydrofuro[2,3-c]pyridine-2,1′-cyclobutane-3′,4″-piperidine]] showed a negative-log EC50 (pEC50) of 7.38. Turning to `CC1=C(c2cc3c(cn2)OC2(C3)CC3(CCN(C(=O)OC(C)(C)C)CC3)C2)CCN(S(C)(=O)=O)C1` [Example 8, 5-(1-Methanesulfonyl-5-methyl-1,2,3,6-tetrahydro-pyridin-4-yl)-1″-tert-butoxycarbonyl-dispiro[2,3-dihydrofuro[2,3-c]pyridine-2,1′-cyclobutane-3′,4″-piperidine]], the pEC50 was 7.72. Regarding `CS(=O)(=O)N1CC=C(c2cc3c(cn2)OC2(C3)CC3(CCN(c4ncc(Cl)cn4)CC3)C2)CC1` [Example 9, 1″-(5-Chloro-pyrimidin-2-yl)-5-(1-methanesulfonyl-1,2,3,6-tetrahydro-pyridin-4-yl)-dispiro[2,3-dihydrofuro[2,3-c]pyridine-2,1′-cyclobutane-3′,4″-piperidine]], the negative-log EC50 (pEC50) was 8.22. For `CC(C)OC(=O)N1CCC2(CC1)CC1(Cc3cc(C4=CCN(S(C)(=O)=O)CC4)ncc3O1)C2` [Example 10, 1″-(Isopropyloxycarbonyl)-5-(1-methanesulfonyl-1,2,3,6-tetrahydro-pyridin-4-yl)-dispiro[2,3-dihydrofuro[2,3-c]pyridine-2,1′-cyclobutane-3′,4″-piperidine]], the pEC50 was 7.80.

`CS(=O)(=O)N1CC=C(c2cc3c(cn2)OC2(C3)CC3(CCN(c4ccc(C(F)(F)F)cn4)CC3)C2)CC1` [Example 11, 5-(1-Methanesulfonyl-1,2,3,6-tetrahydro-pyridin-4-yl)-1″-(5-trifluoromethyl-pyridin-2-yl)-dispiro[2,3-dihydrofuro[2,3-c]pyridine-2,1′-cyclobutane-3′,4″-piperidine]] gave a pEC50 of 7.89. With `CC1(OC(=O)N2CCC3(CC2)CC2(Cc4cc(C5=CCN(S(C)(=O)=O)CC5)ncc4O2)C3)CC1` [Example 12, 5-(1-Methanesulfonyl-1,2,3,6-tetrahydro-pyridin-4-yl)-1″-(1-methyl-cyclopropyloxycarbonyl)-dispiro[2,3-dihydrofuro[2,3-c]pyridine-2,1′-cyclobutane-3′,4″-piperidine]] the figure was 7.96; with `CC(C)(C)OC(=O)N1CCC2(CC1)CC1(Cc3cc(-c4ccc(S(C)(=O)=O)nc4)ncc3O1)C2` [Example 13, 5-(6-Methanesulfonyl-pyridin-3-yl)-1″-tert-butoxycarbonyl-dispiro[2,3-dihydrofuro[2,3-c]pyridine-2,1′-cyclobutane-3′,4″-piperidine]], 7.38; with `CC(C)(C)OC(=O)N1CCC2(CC1)CC1(Cc3cc(-c4ccc(C#N)cc4F)ncc3O1)C2` [Example 14, 5-(4-Cyano-2-fluoro-phenyl)-1″-tert-butoxycarbonyl-dispiro[2,3-dihydrofuro[2,3-c]pyridine-2,1′-cyclobutane-3′,4″-piperidine]], 7.22. In turn, `CC(C)Oc1cnc(N2CCC3(CC2)CC2(Cc4cc(C5=CCN(S(C)(=O)=O)CC5)ncc4O2)C3)nc1` [Example 15, 1″-(5-Isopropoxy-pyrimidin-2-yl)-5-(1-methanesulfonyl-1,2,3,6-tetrahydro-pyridin-4-yl)-dispiro[2,3-dihydrofuro[2,3-c]pyridine-2,1′-cyclobutane-3′,4″-piperidine]] had a pEC50 of 8.00. The value for `CCCc1cnc(N2CCC3(CC2)CC2(Cc4cc(C5=CCN(S(C)(=O)=O)CC5)ncc4O2)C3)nc1` [Example 16, 5-(1-Methanesulfonyl-1,2,3,6-tetrahydro-pyridin-4-yl)-1″-(5-n-propyl-pyrimidin-2-yl)-dispiro[2,3-dihydrofuro[2,3-c]pyridine-2,1′-cyclobutane-3′,4″-piperidine]] was 8.40. `CS(=O)(=O)N1CC=C(c2cc3c(cn2)OC2(C3)CC3(CCN(c4ncc(C5CC5)cn4)CC3)C2)CC1` [Example 17, 1″-(5-Cyclopropyl-pyrimidin-2-yl)-5-(1-methanesulfonyl-1,2,3,6-tetrahydro-pyridin-4-yl)-dispiro[2,3-dihydrofuro[2,3-c]pyridine-2,1′-cyclobutane-3′,4″-piperidine]] had a pEC50 of 8.05. `CC(C)(C)OC(=O)N1CCC2(CC1)CC1(Cc3cc(-c4ccc(CS(C)(=O)=O)cc4)ncc3O1)C2` [Example 18, 5-(4-Methylsulfonylmethyl-phenyl)-1″-tert-butoxycarbonyl-dispiro[2,3-dihydrofuro[2,3-c]pyridine-2,1′-cyclobutane-3′,4″-piperidine]]: the pEC50 was 7.62. Take `CC(C)(C)OC(=O)N1CCC2(CC1)CC1(Cc3cc(C4CCN(S(C)(=O)=O)CC4)ncc3O1)C2` [Example 19, 5-(1-Methanesulfonyl-piperidin-4-yl)-1″-tert-butoxycarbonyl-dispiro[2,3-dihydrofuro[2,3-c]pyridine-2,1′-cyclobutane-3′,4″-piperidine]]: the pEC50 was 6.97. Consider `CS(=O)(=O)N1CC=C(c2cc3c(cn2)OC2(C3)CC3(CCN(c4nnc(C(F)(F)F)s4)CC3)C2)CC1` [Example 20, 5-(1-Methanesulfonyl-1,2,3,6-tetrahydro-pyridin-4-yl)-1″-(5-trifluoromethyl-[1,3,4]thiadiazol-2-yl)-dispiro[2,3-dihydrofuro[2,3-c]pyridine-2,1′-cyclobutane-3′,4″-piperidine]], for which the negative-log EC50 (pEC50) was 8.00. `CC(C)(C)OC(=O)N1CCC2(CC1)CC1(Cc3cc(N4CCN(S(C)(=O)=O)CC4)ncc3O1)C2` [Example 21, 5-(4-Methanesulfonyl-piperazin-1-yl)-1″-tert-butoxycarbonyl-dispiro[2,3-dihydrofuro[2,3-c]pyridine-2,1′-cyclobutane-3′,4″-piperidine]] gave a pEC50 of 7.11.

`CCNC(=O)c1ccc(-c2cc3c(cn2)OC2(C3)CC3(CCN(C(=O)OC(C)(C)C)CC3)C2)cc1` [Example 22, 5-(4-Ethylaminocarbonyl-phenyl)-1″-tert-butoxycarbonyl-dispiro[2,3-dihydrofuro[2,3-c]pyridine-2,1′-cyclobutane-3′,4″-piperidine]] had a pEC50 of 7.55.

Source of the values: patent publication US8809361B2, “2,3-dihydrofuro[2,3-c]pyridines, their use as modulators of the G-protein-coupled receptor GPR119 and pharmaceutical compositions thereof” (Boehringer Ingelheim International GmbH, priority 2012, dated 2014).
